# Reference: patent US20260166039A1 (SCHRÖDINGER, INC., priority 2022, published 2026)
# Like-named read-outs stand apart in the source and are kept apart here.
# Legend:
# Wee1 kinase domain = target: T1, Wee1 kinase domain (Homo sapiens, UniProt P30291); assay: Wee1 Kinase Biochemical Assay (ADP-Glo); conditions: 15 uM ATP
# T1 construct: Wee1 kinase domain was purchased from Carna (catalog #05-177); purchased Carna 05-177
# In short: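 ADP-Glo luminescence readout of ADP produced by 1 nM kinase domain phosphorylating Poly(Lys,Tyr 4:1) (2 ng/mL) at 15 uM ATP. Reaction ran 4 h, 25 °C, in Tris/MgCl2 buffer with BSA and DTT. Inhibition scaled between DMSO (high) and saturating control inhibitor (low).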
# [1] = tested on: phosphorylation of Cdc2 Y15 (Wee1 substrate) in A427 cells; assay: Phosphorylated Cdc2 MSD Electrochemiluminescence Assay; type: cell-based; conditions: Homo sapiens
# In short: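 Read-out: percent residual phospho-Cdc2 Y15 relative to DMSO and positive-control Wee1 inhibitor, measured by MSD electrochemiluminescence capture/detection antibody assay in cell lysates. A427 cells received duplicate 3-fold compound dilution series 20 h post-seeding, with 6 h total incubation at 37 °C.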
# [2] = class symbols, 1 nM Wee1 enzyme, 4 hours at 25° C.
# [3] = A-427, class symbols, read-out: A427 pCDC2 MSD IC50
# T1 sequence (P30291 299-569 limits assumed): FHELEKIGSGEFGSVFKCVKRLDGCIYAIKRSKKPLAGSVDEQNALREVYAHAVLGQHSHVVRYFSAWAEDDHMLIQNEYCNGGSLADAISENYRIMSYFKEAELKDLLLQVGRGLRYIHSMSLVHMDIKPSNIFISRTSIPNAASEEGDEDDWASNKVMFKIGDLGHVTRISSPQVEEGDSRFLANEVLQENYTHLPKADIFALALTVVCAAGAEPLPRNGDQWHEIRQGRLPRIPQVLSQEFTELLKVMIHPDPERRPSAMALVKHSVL
Compound,IC50 (Wee1 kinase domain; [2]),"IC50 [1, 3]","IC50 (Wee1 kinase domain; Wee1 kinase domain, ADP-Glo)","IC50 ([1]; A-427, pCDC2 MSD)",other results
"Cc1cc(Nc2ncc3c(n2)N(c2cccc(N4CCOC4=O)n2)[C@@H]2CC(C)(C)OC[C@]32C)ccc1N1C[C@@H]2C[C@H]1CN2C [Example 654, 3-(6-((4bR,8aR)-4b,7,7-trimethyl-2-((3-methyl-4-((1S,4S)-5-methyl-2,5-diazabicyclo[2.2.1]heptan-2-yl)phenyl)amino)-4b,7,8,8a-tetrahydropyrano[3′,4′:4,5]pyrrolo[2,3-d]pyrimidin-9(5H)-yl)pyridin-2-yl)oxazolidin-2-one]",< 10 nM,100 to 1000 nM,–,–,–
"CC1(C)C[C@H]2N(c3cccc(P(C)(C)=O)n3)c3nc(Nc4ccn([C@@H]5CCOC5)c(=O)c4)ncc3[C@@]2(C)CO1 [Example 783, 4-(((4bR,8aR)-9-(6-(dimethylphosphoryl)pyridin-2-yl)-4b,7,7-trimethyl-4b,5,7,8,8a,9-hexahydropyrano[3′,4′:4,5]pyrrolo[2,3-d]pyrimidin-2-yl)amino)-1-((R)-tetrahydrofuran-3-yl)pyridin-2(1H)-one]",< 10 nM,< 100 nM,–,–,–
"CC1(C)C[C@H]2N(c3cccc(N4CCCC4=O)n3)c3nc(Nc4ccc(O[C@@H]5CCNC5)cc4)ncc3[C@@]2(C)CO1 [Example 616, 1-(6-((4bR,8aR)-4b,7,7-trimethyl-2-((4-(((R)-pyrrolidin-3-yl)oxy)phenyl)amino)-4b,7,8,8a-tetrahydropyrano[3′,4′:4,5]pyrrolo[2,3-d]pyrimidin-9(5H)-yl)pyridin-2-yl)pyrrolidin-2-one]",< 10 nM,100 to 1000 nM,–,–,–
"C[C@H]1COC(=O)N1c1cccc(N2c3nc(Nc4ccc([C@H]5CCN(C)C5)nc4)ncc3[C@@]3(C)COC(C)(C)C[C@@H]23)n1 (single isomer, unassigned) [Example 263]",–,–,< 10 nM,< 100 nM,–
"Cc1cc(Nc2ncc3c(n2)N(c2cccc(N4C(=O)OC[C@@H]4C)n2)[C@@H]2CC(C)(C)OC[C@]32C)ccc1O[C@H]1CCNC1 (single isomer, unassigned) [Example 339]",–,–,< 10 nM,100 to 1000 nM,–
"CN1CCN(c2ccc(Nc3ncc4c(n3)N(c3ccn(C(F)(F)F)n3)[C@@H]3CC(C)(C)OC[C@]43C)cc2)CC1 (single isomer, unassigned) [Example 719]",< 10 nM,1000 to 10000 nM,–,–,–
"CN1CC2CC1CN2c1ccc(Nc2ncc3c(n2)N(c2cccc(C(F)F)n2)[C@@H]2CC(C)(C)OC[C@]32C)cc1 (stereo in doubt) [Example 814, (4bR,8aR)-9-(6-(difluoromethyl)pyridin-2-yl)-4b,7,7-trimethyl-N-(4-((1R,4R)-5-methyl-2,5-diazabicyclo[2.2.1]heptan-2-yl)phenyl)-4b,5,7,8,8a,9-hexahydropyrano[3′,4′:4,5]pyrrolo[2,3-d]pyrimidin-2-amine]",–,–,–,–,"IC50 (Wee1 kinase domain; 1 nM Wee1 enzyme, 4 hours at 25° C): < 10 nM; IC50 ([1]; A-427, read-out: A427 pCDC2 MSD IC50): 100 to 1000 nM"
"CNCc1cccc(N2c3nc(Nc4ccc([C@@H]5CCOC5)cc4)ncc3[C@@]3(C)COC(C)(C)C[C@@H]23)n1 (single isomer, unassigned) [Example 38]",–,–,< 10 nM,< 100 nM,–
"Cn1nc(Nc2ncc3c(n2)N(c2cccc(N=S(C)(C)=O)n2)[C@@H]2CC(C)(C)OC[C@]32C)ccc1=O (single isomer, unassigned) [Example 365]",–,–,< 10 nM,1000 to 10000 nM,–
"CN1CC[C@H](Oc2ccc(Nc3ncc4c(n3)N(c3cccc(N5CCOC5=O)n3)[C@@H]3CC(C)(C)OC[C@]43C)cc2)C1 [Example 615, 3-(6-((4bR,8aR)-4b,7,7-trimethyl-2-((4-(((S)-1-methylpyrrolidin-3-yl)oxy)phenyl)amino)-4b,7,8,8a-tetrahydropyrano[3′,4′:4,5]pyrrolo[2,3-d]pyrimidin-9(5H)-yl)pyridin-2-yl)oxazolidin-2-one]",< 10 nM,< 100 nM,–,–,–
"CNCc1cccc(N2c3nc(Nc4ccc(N5C[C@@H]6C[C@H]5CO6)cc4)ncc3[C@@]3(C)COC(C)(C)C[C@@H]23)n1 (single isomer, unassigned) [Example 41]",–,–,< 10 nM,< 100 nM,–
"CNC(=O)c1ccc(Nc2ncc3c(n2)N(c2cccc(N=S(C)(C)=O)n2)[C@@H]2CC(C)(C)OC[C@]32C)cc1 (single isomer, unassigned) [Example 117]",–,–,< 10 nM,< 100 nM,–
"C[C@H]1CCC(=O)N1c1cccc(N2c3nc(Nc4ccc(N5C[C@H]6C[C@@H](C5)N6C)cc4)ncc3[C@@]3(C)COC(C)(C)C[C@@H]23)n1 (single isomer, unassigned) [Example 748]",< 10 nM,100 to 1000 nM,–,–,–
"CNCc1cccc(N2c3nc(Nc4ccc(N5C6CCC5COC6)cc4)ncc3[C@@]3(C)COC(C)(C)C[C@@H]23)n1 (single isomer, unassigned) [Example 87]",–,–,< 10 nM,100 to 1000 nM,–
"CN[C@H](Cc1ccc(Nc2ncc3c(n2)N(c2cccc(N4C(=O)OC[C@@H]4C)n2)[C@@H]2CC(C)(C)OC[C@]32C)cc1)C(=O)O (single isomer, unassigned) [Example 323]",–,–,< 10 nM,100 to 1000 nM,–
"C[C@H]1COC(=O)N1c1cccc(N2c3nc(Nc4ccc(O[C@@H]5CCN(C)C5)nc4)ncc3[C@@]3(C)COC(C)(C)C[C@@H]23)n1 (single isomer, unassigned) [Example 283]",–,–,< 10 nM,100 to 1000 nM,–
"C[C@H]1COC(=O)N1c1cccc(N2c3nc(Nc4ccc(N5CCN(C)CC5)cc4)ncc3[C@@]3(C)COCC[C@@H]23)n1 (single isomer, unassigned) [Example 702]",< 10 nM,100 to 1000 nM,–,–,–

Compound,IC50 (Wee1 kinase domain; [2]),"IC50 [1, 3]","IC50 (Wee1 kinase domain; Wee1 kinase domain, ADP-Glo)","IC50 ([1]; A-427, pCDC2 MSD)",other results
"CC1(C)C[C@H]2N(c3cccc(N=S(C)(C)=O)n3)c3nc(N)ncc3[C@@]2(C)CO1 (single isomer, unassigned) [Example 746]",< 10 nM,100 to 1000 nM,–,–,–
"CN1CCN(c2ccc(Nc3ncc4c(n3)N(c3cccc(N5C(=O)OCC5(C)C)n3)[C@@H]3CC(C)(C)OC[C@]43C)cc2)CC1 (single isomer, unassigned) [Example 728]",< 10 nM,100 to 1000 nM,–,–,–
"CC1(C)C[C@H]2N(c3cccc(N=S(C)(C)=O)n3)c3nc(Nc4ccc(N5CCOCC5)nc4)ncc3[C@@]2(C)CO1 (single isomer, unassigned) [Example 493]",< 10 nM,100 to 1000 nM,–,–,–
"CN1CCc2ccc(Nc3ncc4c(n3)N(c3cccc(N=S(C)(C)=O)n3)[C@@H]3CC(C)(C)OC[C@]43C)cc2C1 (single isomer, unassigned) [Example 109]",–,–,< 10 nM,< 100 nM,–
"CNCc1cccc(N2c3nc(Nc4ccccc4)ncc3[C@@]3(C)COC(C)(C)C[C@@H]23)n1 (single isomer, unassigned) [Example 45]",–,–,< 10 nM,100 to 1000 nM,–
"CC1(C)C[C@H]2N(c3cccc(N4CCOC4=O)n3)c3nc(Nc4ccc([C@@H]5CCNC5)cc4)ncc3[C@@]2(C)CO1 (single isomer, unassigned) [Example 607]",< 10 nM,100 to 1000 nM,–,–,–
"CN1C[C@@H]2CN(c3ccc(Nc4ncc5c(n4)N(c4cccc(N=S(C)(C)=O)n4)[C@@H]4CC(C)(C)OC[C@]54C)cc3)C[C@@H]2C1 (single isomer, unassigned) [Example 217]",–,–,< 10 nM,100 to 1000 nM,–
"CN1CCN(c2ccc(Nc3ncc4c(n3)N(c3cccc(P(C)(C)=O)n3)[C@@H]3CC(C)(C)OC[C@]43C)cc2)CC1 (single isomer, unassigned) [Example 753]",< 10 nM,100 to 1000 nM,–,–,–
"C[C@H]1COC(=O)N1c1cccc(N2c3nc(Nc4ccc([C@H]5CCNC5)cc4)ncc3[C@@]3(C)COC(C)(C)C[C@@H]23)n1 (single isomer, unassigned) [Example 279]",–,–,< 10 nM,100 to 1000 nM,–
"COc1cccc(N2c3nc(Nc4ccc(N5CCN(C)CC5)cc4)ncc3[C@@]3(C)COC(C)(C)C[C@@H]23)n1 (single isomer, unassigned) [Example 758]",< 10 nM,100 to 1000 nM,–,–,–
"CN1CCN(c2ccc(Nc3ncc4c(n3)N(c3cccc(N=S(C)(C)=O)n3)[C@@H]3CC(C)(C)OC[C@]43C)cc2)CC1 [Example 100, Dimethyl((6-((4bR,8aR)-4b,7,7-trimethyl-2-((4-(4-methylpiperazin-1-yl)phenyl)amino)-4b,7,8,8a-tetrahydropyrano[3′,4′:4,5]pyrrolo[2,3-d]pyrimidin-9(5H)-yl)pyridin-2-yl)imino)-l6-sulfanone]",–,–,< 10 nM,< 100 nM,–
"CC1(C)C[C@H]2N(c3cccc(N=S(C)(C)=O)n3)c3nc(Nc4ccn(C5CCOCC5)c(=O)c4)ncc3[C@@]2(C)CO1 (single isomer, unassigned) [Example 233]",–,–,< 10 nM,100 to 1000 nM,–
"CN1CC(c2ccc(Nc3ncc4c(n3)N(c3cccc(N=S(C)(C)=O)n3)[C@@H]3CC(C)(C)OC[C@]43C)cn2)C1 (single isomer, unassigned) [Example 192]",–,–,< 10 nM,100 to 1000 nM,–
"Cc1ccc(Nc2ncc3c(n2)N(c2cccc(N=S(C)(C)=O)n2)[C@@H]2CC(C)(C)OC[C@]32C)cn1 (single isomer, unassigned) [Example 491]",< 10 nM,100 to 1000 nM,–,–,–
"C[C@H]1COC(=O)N1c1cccc(N2c3nc(Nc4ccc(C5CN(C)C5)cc4)ncc3[C@@]3(C)COC(C)(C)C[C@@H]23)n1 (single isomer, unassigned) [Example 311]",–,–,< 10 nM,100 to 1000 nM,–
"CC1(C)C[C@H]2N(c3cccc(N4CCOC4=O)n3)c3nc(Nc4ccc([C@H]5CCNC5)cc4)ncc3[C@@]2(C)CO1 (single isomer, unassigned) [Example 608]",< 10 nM,100 to 1000 nM,–,–,–
